Experiment: Chemical stability in buffer, UPLC purity
Type: physicochemical

Purity after 7 days (pH 4.6, 4° C.) [%]	Purity after 14 days (pH 4.6, 4° C.) [%]	Purity after 7 days (pH 4.6, 25° C.) [%]	Purity after 14 days (pH 4.6, 25° C.) [%]	Purity after 7 days (pH 4.6, 40° C.) [%]	Purity after 14 days (pH 4.6, 40° C.) [%]	Purity after 7 days (pH 7.4, 4° C.) [%]	Purity after 14 days (pH 7.4, 4° C.) [%]	Purity after 7 days (pH 7.4, 25° C.) [%]	Purity after 14 days (pH 7.4, 25° C.) [%]	Purity after 7 days (pH 7.4, 40° C.) [%]	Purity after 14 days (pH 7.4, 40° C.) [%]	Substance
100	99	99	97	94	84	97	94	81	67	47	33	Tza-SQGTFTSDYSKQLESRRAQEFIEWLLAGGPESGAPPPSC(VS-DO3A(Ga))-NH2 [SEQ ID NO 8]
100	99	99	97	94	84	97	94	81	67	47	33	Tza-SQGTFTSDYSKQLDEQRAQEFIEWLLATGPESGAPPPSC(VS-DO3A(Ga))-NH2 [SEQ ID NO 50]

Second part, the substance before the results:

Substance	Purity after 7 days (pH 4.6, 4° C.) [%]	Purity after 14 days (pH 4.6, 4° C.) [%]	Purity after 7 days (pH 4.6, 25° C.) [%]	Purity after 14 days (pH 4.6, 25° C.) [%]	Purity after 7 days (pH 4.6, 40° C.) [%]	Purity after 14 days (pH 4.6, 40° C.) [%]	Purity after 7 days (pH 7.4, 4° C.) [%]	Purity after 14 days (pH 7.4, 4° C.) [%]	Purity after 7 days (pH 7.4, 25° C.) [%]	Purity after 14 days (pH 7.4, 25° C.) [%]	Purity after 7 days (pH 7.4, 40° C.) [%]	Purity after 14 days (pH 7.4, 40° C.) [%]
Tza-S-Q-G-T-F-T-S-D-I-S-K-Q-Nle-ESRRAQEFIEWLLATGPESGAPPPSC(VS-DO3A)-NH2 [SEQ ID NO 35]	100	99	97	97	92	91	98	96	90	84	64	53
Tza-SQGTFTSDYSKQLDEQRAQEFIEWLLATGPESGAPPPSC(VS-DO3A)-NH2 [SEQ ID NO 49]	100	99	97	97	92	91	98	96	90	84	64	53
Tza-SQGTFTSDYSKQLESRRAQEFIEWLLAGGPESGAPPPSC(VS-DO3A)-NH2 [SEQ ID NO 6]	100	99	97	97	92	91	98	96	90	84	64	53
Tza-S-Q-G-T-F-T-S-D-I-S-K-Q-Nle-ESRRAQEFIEWLLATGPESGAPPPSC(VS-DO3A(Ga))-NH2 [SEQ ID NO 36]	100	99	99	97	94	84	97	94	81	67	47	33
